Results reported in paper PMC4768138, “Biliverdin targets enolase and eukaryotic initiation factor 2 (eIF2α) to reduce the growth of intraerythrocytic development of the malaria parasite Plasmodium falciparum” (Scientific Reports, 2016).

Columns and labels:
[1] = molecular target: T1, P. falciparum enolase (Pf enolase) (Plasmodium falciparum, UniProt Q8IJN7); test: ITC with purified enzyme (n = […], ΔG −[…] Kcal/mol, Kd not given); IC50 from enzyme inhibition assay; assay type: biochemical
T1 construct: gene ENO; recombinant full-length Plasmodium enolase, expressed in E. coli, His-tag-thioredoxin removed by TEV protease

[2] = molecular target: the molecule itself; test: SEC; Superdex 200 16/60, 20 mM Tris-HCl pH 8.0, 200 mM NaCl; single symmetric peak of the purified recombinant protein

| Molecule | IC50 [1] | stoichiometry N [2] |
| --- | --- | --- |
| C=CC1=C(C)/C(=C/C2=NC(=C\c3[nH]c(/C=C4\NC(=O)C(C)=C4C=C)c(C)c3CCC(=O)O)/C(CCC(=O)O)=C2C)NC1=O [BV, biliverdin] | 27 ± 4 µM | – |
| Plasmodium falciparum enolase (enzyme, UniProt Q8IJN7 1-446, looked up, Enolase of Plasmodium falciparum, expressed from the P. falciparum enolase-pETTrx-1a plasmid; the abstract calls it recombinant full-length Plasmodium enolase; The His-tag-thioredoxin was removed by TEV protease; also called Pf enolase; P. falciparum enolase; source: E. coli Rosetta (DE3), purified (HisTrap, TEV digestion, second HisTrap, Superdex 200)) MAHVITRINAREILDSRGNPTVEVDLETNLGIFRAAVPSGASTGIYEALELRDNDKSRYLGKGVQKAIKNINEIIAPKLIGMNCTEQKKIDNLMVEELDGSKNEWGWSKSKLGANAILAISMAVCRAGAAANKVSLYKYLAQLAGKKSDQMVLPVPCLNVINGGSHAGNKLSFQEFMIVPVGAPSFKEALRYGAEVYHTLKSEIKKKYGIDATNVGDEGGFAPNILNANEALDLLVTAIKSAGYEGKVKIAMDVAASEFYNSENKTYDLDFKTPNNDKSLVKTGAQLVDLYIDLVKKYPIVSIEDPFDQDDWENYAKLTAAIGKDVQIVGDDLLVTNPTRITKALEKNACNALLLKVNQIGSITEAIEACLLSQKNNWGVMVSHRSGETEDVFIADLVVALRTGQIKTGAPCRSERNAKYNQLLRIEESLGNNAVFAGEKFRLQLN | – | 2 |
